Values of other authors in Sander's compilation of Henry's law constants (doi:10.1093/bja/45.3.282).

Test: Henry solubility constant Hcp at 310 K (mol/(m3 Pa))
Conditions: reference: Steward et al. (1973); cited value

SMILES	Henry solubility constant Hcp at 310 K
CCCl [chloroethane]	0.00047
C=COCC(F)(F)F [(2,2,2-trifluoroethoxy)-ethene]	0.00033
[N-]=[N+]=O [dinitrogen monoxide]	0.00018
C=C [ethene]	3.5e-05
CCOCC [diethyl ether]	0.005
COC(F)(F)C(Cl)Cl [2,2-dichloro-1,1-difluoro-1-methoxyethane]	0.0017
FC(F)OC(Cl)C(F)(F)F (centres undefined) [1-chloro-2,2,2-trifluoroethyl difluoromethyl ether]	0.00024
ClC=C(Cl)Cl [trichloroethene]	0.00066
C=COC=C [divinyl ether]	0.00054
C1CC1 [cyclopropane]	8.1e-05
FC(F)(F)C(Cl)Br (centres undefined) [1-bromo-1-chloro-2,2,2-trifluoroethane]	0.00031
FC(F)OC(F)(F)C(F)Cl (centres undefined) [2-chloro-1,1,2-trifluoroethyl difluoromethyl ether]	0.0003
[Kr] [krypton]	2e-05
[Xe] [xenon]	3.3e-05
